# Laboratory results published in patent US20250090658A1, “POLYMER ADJUVANT” (Oxford University Innovation Limited, priority 2014, published 2025).
# “Also recorded” adds a separate entry of the source.
# Tests used:
# [1] = tested on: serum IL-12p40 and IP-10; test: Serum (systemic) cytokines after subcutaneous administration (ELISA); type: in vivo, C57/BL6 mice
# Text: FIG. 9: Morphology of the carrier and TLR-7/8a agonist density, dose and potency independently influence the magnitude and spatiotemporal characteristics of innate immune activation. (a-g) To facilitate in vivo tracking, dye-labeled Poly-7/8a (PP-7/8a^Hi, PP-7/8a^Lo, PC-7/8a^Lo) (Note PP-7/8a^Hi=10 mol % and PP-7/8a^Lo=3 mol %) and small molecule TLR-7/8a normalized for TLR-7/8a dose (12.5 nmol), and controls, were delivered subcutaneously to the left footpad of mice. […] (c-e) Draining lymph nodes (n=3) were harvested at serial timepoints and evaluated by flow cytometry. […] Total CD11c^+ DC were evaluated for (d) adjuvant uptake (% Ax488^+), (e,f) relative adjuvant uptake per cell (Ax488 MFI; note that PP-7/8a^Lo and PC-7/8a^Lo are matched for TLR-7/8a density and dose), (g) magnitude and (h) activation (CD80 co-stimulatory molecule expression). (i) IL-12p40 was measured from the supernatant of ex vivo lymph node cultures. […] At day 28, tetramer+CD8 T cell responses were evaluated from whole blood. […] (n) Total IgG antibody titers and the ratio of IgG1/IgG2c antibody endpoint titers were evaluated from sera on day 28.
# FIG. 10: Persistent local innate immune by particulate Poly-7/8a (PP-7/8a) activation is necessary and sufficient for inducing protective CD8 T cell responses. […] (b) Serum (n=3-5) was assessed for IL-12p40 by ELISA at serial timepoints. […]
# [2] = Body weight change after subcutaneous adjuvant administration; type: in vivo, C57/BL6 mice
# Method: FIG. 10: Persistent local innate immune by particulate Poly-7/8a (PP-7/8a) activation is necessary and sufficient for inducing protective CD8 T cell responses. (a-c) CpG (20 μg), R848 (62.5 nmol) or PP-7/8a^Hi (62.5 nmol) were delivered subcutaneously into both hind footpads of C57/BL6 mice. (a) Supernatant of ex vivo cultured lymph node cell suspensions (n=4) were evaluated for IL-12p40 by ELISA at serial timepoints. (b) Serum (n=3-5) was assessed for IL-12p40 by ELISA at serial timepoints. (c) Percent body weight change (n=3) following subcutaneous administration of different vaccine adjuvants. (d) A model for understanding the relationship between biodistribution and local and systemic innate immune activation. (e, f) C57/BL6 mice (n=6) received a single subcutaneous footpad injection of 50 μg of OVA formulated with adjuvant at days 0 and 14. (e) At day 25, tetramer^+ CD8 T cell responses from whole blood were evaluated by flow cytometry. (f) Mice (n=6) were challenged intravenously at day 28 with LM-OVA and bacterial burden in the spleens was evaluated on day 31. (g, h) Immunogenicity experiments were repeated using SIV Gag p41 in place of OVA.
# [3] = Biodistribution and kinetics of dye-labeled materials after subcutaneous administration (X-ray and epifluorescence imaging); type: in vivo, mice
# Text: (§1) FIG. 9: Morphology of the carrier and TLR-7/8a agonist density, dose and potency independently influence the magnitude and spatiotemporal characteristics of innate immune activation. (a-g) To facilitate in vivo tracking, dye-labeled Poly-7/8a (PP-7/8a^Hi, PP-7/8a^Lo, PC-7/8a^Lo) (Note PP-7/8a^Hi=10 mol % and PP-7/8a^Lo=3 mol %) and small molecule TLR-7/8a normalized for TLR-7/8a dose (12.5 nmol), and controls, were delivered subcutaneously to the left footpad of mice. (a, b) mice (n=3) that received IR-dye labeled materials were imaged by dual modality X-ray and epifluorescence spectroscopy; (a) Representative images illustrating biodistribution over the first 2 days; (b) Kinetics of the different constructs in the popliteal lymph node. (c-e) Draining lymph nodes (n=3) were harvested at serial timepoints and evaluated by flow cytometry. […] Total CD11c^+ DC were evaluated for (d) adjuvant uptake (% Ax488^+), (e,f) relative adjuvant uptake per cell (Ax488 MFI; note that PP-7/8a^Lo and PC-7/8a^Lo are matched for TLR-7/8a density and dose), (g) magnitude and (h) activation (CD80 co-stimulatory molecule expression). (i) IL-12p40 was measured from the supernatant of ex vivo lymph node cultures. […] At day 28, tetramer+CD8 T cell responses were evaluated from whole blood. […] (n) Total IgG antibody titers and the ratio of IgG1/IgG2c antibody endpoint titers were evaluated from sera on day 28.
# [4] = tested on: CD11c+ DC; test: DC recruitment and activation (CD80) in draining lymph nodes; type: in vivo, mice; conditions: TLR-7/8a dose 12.5 nmol, subcutaneous
# Text: as §1
# [5] = tested on: Th1 CD4 T cells; test: MML immunization, antigen-specific Th1 cytokine producing CD4 T cells in splenocytes; type: in vivo, C57/BL6 mice; conditions: 20 μg MML, days 0, 21 and 42
# Method: FIG. 11: Particulate Poly-7/8a induce Th1 CD4 T cells that mediate protection against Leishmania major. C57/BL6 mice received subcutaneous immunizations of 20 μg of MML protein either alone, or formulated with an adjuvant, on days 0, 21 and 42. (a) Splenocytes were isolated on day 70 and stimulated in vitro with MML peptide pool. Antigen-specific cytokine producing CD4 T cells in the mixed splenocyte cultures were quantified by flow cytometry (n=5) for their capacity to produce Th1 characteristic cytokines (IFNγ, IL-2 and TNFα). (b) Mice (n=6) were challenged intradermally in both ears with L major at day 70. Ear lesion diameters were measured for 12 weeks.
# [6] = molecular target: T1, hTLR7 (Homo sapiens, UniProt Q9NYK1); test: HEK293 hTLR7 reporter cell assay (absorbance at 405 nm); type: cell-based; conditions: HEK293 hTLR7 reporter cells
# T1 construct: expressed in transfected cells; host or cells: HEK293
# T1 sequence (Q9NYK1 27-1049): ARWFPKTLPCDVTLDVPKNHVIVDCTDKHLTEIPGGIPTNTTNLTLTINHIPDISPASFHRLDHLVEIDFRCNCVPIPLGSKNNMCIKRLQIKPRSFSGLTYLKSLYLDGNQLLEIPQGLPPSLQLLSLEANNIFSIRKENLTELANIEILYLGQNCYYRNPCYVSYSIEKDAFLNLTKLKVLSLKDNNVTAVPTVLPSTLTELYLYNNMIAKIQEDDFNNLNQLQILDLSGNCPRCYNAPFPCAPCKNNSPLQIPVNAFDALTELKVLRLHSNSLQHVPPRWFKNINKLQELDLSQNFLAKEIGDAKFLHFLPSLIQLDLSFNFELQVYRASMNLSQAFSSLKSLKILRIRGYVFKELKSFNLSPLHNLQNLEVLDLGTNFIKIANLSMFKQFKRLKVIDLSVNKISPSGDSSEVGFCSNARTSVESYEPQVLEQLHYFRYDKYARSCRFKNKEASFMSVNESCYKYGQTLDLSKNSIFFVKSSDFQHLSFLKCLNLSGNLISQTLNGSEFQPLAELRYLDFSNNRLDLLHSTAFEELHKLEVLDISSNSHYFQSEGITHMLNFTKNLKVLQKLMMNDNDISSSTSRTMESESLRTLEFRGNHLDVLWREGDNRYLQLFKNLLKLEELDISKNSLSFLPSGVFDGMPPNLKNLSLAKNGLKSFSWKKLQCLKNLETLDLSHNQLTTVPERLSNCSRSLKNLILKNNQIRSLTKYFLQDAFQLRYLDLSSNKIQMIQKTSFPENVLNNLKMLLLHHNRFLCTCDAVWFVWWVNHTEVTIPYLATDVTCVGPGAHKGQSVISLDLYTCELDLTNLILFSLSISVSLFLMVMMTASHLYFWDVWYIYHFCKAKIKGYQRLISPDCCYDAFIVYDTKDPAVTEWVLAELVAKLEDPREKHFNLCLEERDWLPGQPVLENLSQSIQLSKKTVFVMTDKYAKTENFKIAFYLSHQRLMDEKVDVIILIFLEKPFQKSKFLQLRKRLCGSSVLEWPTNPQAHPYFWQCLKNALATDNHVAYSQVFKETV
# Method: FIG. 6: Combinatorial synthesis was used to generate diverse arrays of Poly-7/8a. […] The potency of these two TLR-7/8a was evaluated in vitro using HEK293 hTLR7 reporter cells; absorbance at 405 nm is proportional to TLR7 binding. (b) A combinatorial library of Poly-7/8a was generated by attaching 2 unique TLR-7/8a (SM 7/8a or SM 20×7/8a) to reactive HPMA-based copolymers at different densities (˜2,4, 8 mol %) using either a short, alkane or PEG linker. By reacting 2 unique TLR-7/8a, at 3 different densities, using 3 different linkers, there are 18 unique products that can be generated, as illustrated (c). Note that this cartoon representation is for illustrative purposes; not all Poly-7/8a represented in this schematic were evaluated in this study, nor does this schematic represent all the materials described herein.
# [7] = Particle formation and size in aqueous solution by (dynamic) light scattering; type: physicochemical; conditions: 0.1 mg/mL PBS
# Text: FIG. 7: In vivo screening of a combinatorial library of Poly-7/8a yields structure-activity insights. (a) Lymph node (n=4) IL-12p40 induced by a combinatorial library of Poly-7/8a. (b) Influence of TLR-7/8a density on lymph node (n=6) IL-12p40 and IP-10 levels (left y-axis, line graphs) and particle size assessed by dynamic light scattering (right y-axis, bar graph). (c) Cryo-electron microscopy of selected samples is shown for illustrative purposes. […] SM=small molecule; PC=polymer coil; PP=polymer particle.
# FIG. 8: Increasing density of agonists on polymers results in an increased tendency of Poly-7/8a to form particles in aqueous solutions and is associated with enhanced local innate immune activity. (b) Negative control polymers were generated using aminopyridine (AP) to account for the contribution of the aromatic amine present on the imidazoquinoline based TLR-7/8a used in this study. AP was attached to polymers either through a PEG or amphiphilic (AMPH) spacer. […] 24 h after administration, supernatant of overnight lymph node cell suspensions were assessed for IFNα (d) or IFNγ (e) by ELISA. (f-g) Lymph nodes were isolated from wild type (WT), TLR-7 knockout or Caspase 1/11 (inflammasome) knockout mice 24 h after subcutaneously administering Poly-7/8a^10%; culture supernatants were evaluated for IP-10 and IL-12 by ELISA.
compound,measurement,setting,value
CCOCc1nc2c(N)nc3ccccc3c2n1CC(C)(C)O [R848],systemic (sera) cytokines,"[1]; CpG 20 μg, R848 62.5 nmol, PP-7/8a^Hi 62.5 nmol, subcutaneous",only induced systemic (sera) cytokines; also recorded: high levels of transient systemic cytokine production
same,mouse body weight,[2],transient decreases in mouse body weight
"CCOCc1nc2c(N)nc3ccccc3c2n1CCCCN [SM 7/8a, 1-(4-aminobutyl)-2-(ethoxymethyl)-1H-imidazo[4,5-c]quinolin-4-amine]",time after which undetectable,[3],≤ 1 days
same,biodistribution / retention,[3]; normalized for TLR-7/8a dose,distributed systemically
same,"DC recruitment, activation and cytokine production in draining lymph nodes",[4],limited lymph node responses
same,serum cytokines,"[1]; TLR-7/8a dose 12.5 nmol, local (subcutaneous) administration",high levels of serum cytokines
same,Th1-type CD4 cell responses,[5],equivalent to MML administered alone
"CCCCc1nc2c(N)nc3ccccc3c2n1Cc1ccc(CN)cc1 [SM 20×7/8a, 1-(4-(aminomethyl)benzyl)-2-butyl-1H-imidazo[4,5-c]quinolin-4-amine]",potency relative to SM 7/8a,[6],~20 fold
p[(HPMA)-co-(Ma-β-Ala-PEG-Pam2Cys)] [Poly-PEG-Pam2Cys],z-average diameter,[7],"2,744±384.8 nm"
